Experimental data published in patent publication US7217704B2, “LPA receptor agonists and antagonists and methods of use” (The University of Tennessee Research Foundation, priority 2003, dated 2007).
pEC50, pIC50, pKi: −log10 of the molar value. “Also recorded” adds a separate entry of the source. Where two headings read alike, the source gives them in different places.

How the values were obtained:
LPA1 = target: T1, LPA1 (Homo sapiens, UniProt Q92633); experiment: Ca2+ transients (agonism / inhibition of LPA response) in RH7777 cells stably expressing LPA1; assay type: cell-based; conditions: for effect at LPA1 in words: Ca2+ transients
T1 construct: expressed in transfected cells
T1 sequence (Q92633 whole entry): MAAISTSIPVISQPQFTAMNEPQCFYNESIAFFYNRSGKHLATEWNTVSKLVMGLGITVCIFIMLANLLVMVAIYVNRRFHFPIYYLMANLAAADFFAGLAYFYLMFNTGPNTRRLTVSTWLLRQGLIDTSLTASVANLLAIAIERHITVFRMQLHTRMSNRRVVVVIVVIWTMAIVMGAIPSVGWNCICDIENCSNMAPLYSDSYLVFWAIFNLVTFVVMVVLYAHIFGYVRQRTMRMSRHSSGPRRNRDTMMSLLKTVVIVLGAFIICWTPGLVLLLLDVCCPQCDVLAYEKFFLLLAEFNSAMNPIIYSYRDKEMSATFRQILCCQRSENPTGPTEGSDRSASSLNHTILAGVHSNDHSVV
Description: (§1) The culture medium (DMEM containing 10% FBS) was then replaced with modified Krebs solution (120 mM NaCl, 5 mM KCl, 0.62 mM MgSO4, 1.8 mM CaCl2, 10 mM HEPES, 6 mM glucose, pH 7.4) and the cells were serum starved for 6–8 hours (12 h for PC-3 cells). Cells were loaded with Fura-2 AM for 35 minutes in modified Krebs medium. The Fura-2 was removed before loading the plate in the FlexStation instrument by replacing the medium once again with 100 μl modified Krebs medium/well. Plates were incubated for 4 minutes in the instrument to allow for warming to 37° C. Changes in intracellular Ca^2+ concentration were monitored by measuring the ratio of emitted light intensity at 520 nm in response to excitation by 340 nm and 380 nm wavelength lights, respectively. Each well was monitored for 80–120 seconds. […] Time courses were recorded using the SoftMax Pro software (Molecular Devices, Sunnyvale, Calif.). Ca^2+ transients were quantified automatically by calculating the difference between maximum and baseline ratio values for each well.
(§2) Each FAP analog was tested for the ability to induce Ca^2+ transients in RH7777 cells transfected with LPA1-3 receptors (agonism), as well as the ability to inhibit LPAinduced Ca^2+ transients in the same cells (antagonism) (Table 3).

LPA2 = target: T2, LPA2 (Homo sapiens, UniProt Q9HBW0); experiment: Ca2+ transients (agonism / inhibition of LPA response) in RH7777 cells stably expressing LPA2; assay type: cell-based
T2 construct: expressed in transfected cells
T2 sequence (Q9HBW0 whole entry): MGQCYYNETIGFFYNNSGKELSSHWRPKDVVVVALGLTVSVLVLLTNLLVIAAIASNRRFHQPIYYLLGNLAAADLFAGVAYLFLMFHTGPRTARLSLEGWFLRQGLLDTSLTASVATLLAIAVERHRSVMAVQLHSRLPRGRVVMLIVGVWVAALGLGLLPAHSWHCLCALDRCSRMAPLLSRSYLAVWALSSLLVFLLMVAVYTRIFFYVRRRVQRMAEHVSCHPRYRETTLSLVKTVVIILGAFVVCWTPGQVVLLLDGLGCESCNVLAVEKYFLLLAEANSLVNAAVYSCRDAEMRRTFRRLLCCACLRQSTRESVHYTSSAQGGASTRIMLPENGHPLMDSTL
Description: as §1, §2

LPA3 = target: T3, LPA3 (Homo sapiens, UniProt Q9UBY5); experiment: Ca2+ transients (agonism / inhibition of LPA response) in RH7777 cells stably expressing LPA3; assay type: cell-based; conditions: for effect at LPA3 in words: Ca2+ transients
T3 construct: expressed in transfected cells
T3 sequence (Q9UBY5 1-353): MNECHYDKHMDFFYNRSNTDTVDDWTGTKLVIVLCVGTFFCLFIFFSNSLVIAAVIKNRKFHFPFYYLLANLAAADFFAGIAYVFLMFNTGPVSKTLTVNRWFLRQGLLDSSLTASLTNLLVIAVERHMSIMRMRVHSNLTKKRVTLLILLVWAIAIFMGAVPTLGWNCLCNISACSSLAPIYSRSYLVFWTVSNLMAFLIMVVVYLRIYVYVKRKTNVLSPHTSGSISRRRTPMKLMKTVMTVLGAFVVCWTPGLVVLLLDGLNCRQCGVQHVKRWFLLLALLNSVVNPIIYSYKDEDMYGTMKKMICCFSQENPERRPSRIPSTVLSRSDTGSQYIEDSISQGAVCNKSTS
Description: as §1, §2

PC-3 cells = experiment: Ca2+ transients in PC-3 cells endogenously expressing LPA1-3; assay type: cell-based, human; conditions: for effect in PC-3 cells in words: Ca2+ transients
Description: as §1
We tested the FAP analogs in PC-3 cells, which unlike the transfected RH7777 cells endogenously express LPA1-3 receptors.

[1] = induction of Ca2+ transients, RH7777 cells expressing LPA1, read-out: LPA1 EC50
[2] = inhibition of LPA-induced Ca2+ transients, RH7777 cells expressing LPA1, read-out: LPA1 IC50
[3] = induction of Ca2+ transients, RH7777 cells expressing LPA2, read-out: LPA2 EC50
[4] = inhibition of LPA-induced Ca2+ transients, RH7777 cells expressing LPA2, read-out: LPA2 IC50
[5] = induction of Ca2+ transients, RH7777 cells expressing LPA3, read-out: LPA3 EC50
[6] = inhibition of LPA-induced Ca2+ transients, RH7777 cells expressing LPA3, read-out: LPA3 (Ki)
[7] = inhibition of LPA-induced Ca2+ transients, RH7777 cells expressing LPA3, read-out: LPA3 IC50
[8] = inhibition of LPA-induced Ca2+ transients, PC-3 cells
[9] = inhibition of LPA-induced Ca2+ transients, PC-3 cells, read-out: PC-3 IC50
[10] = RH7777, maximal efficacy of the drug/maximal efficacy of LPA 18:1, read-out: LPA2 (Emax)
[11] = Homo sapiens, inhibition of LPA-induced Ca2+ transients, PC-3 cells, read-out: PC-3 IC50
[12] = Homo sapiens, PC-3, read-out: PC-3 (Emax)
[13] = Homo sapiens, PC-3, read-out: PC-3 IC50

pIC50 (LPA2; [4])	pEC50 (LPA3; [5])	Structure (SMILES)	pEC50 (LPA1; [1])	pIC50 (LPA1; [2])	pEC50 (LPA2; [3])	pKi (LPA3; [6])	pIC50 (LPA3; [7])	pKi (PC-3 cells; [8])	pEC50 (LPA1)	pIC50 (LPA1)	pEC50 (LPA3)	pIC50 (PC-3 cells; [13])	other results
< 4.52	< 4.52	CCCCCCCCCCCCCCC(F)(F)P(=O)(O)O [Compound 11, (1,1-Difluoro-pentadecyl) Phosphonic Acid]	< 4.52	5.60		6.24	5.82						pKi (LPA1; inhibition of LPA-induced Ca2+ transients, RH7777 cells expressing LPA1): 6.10; inhibition of LPA response at LPA1 (partial antagonism) (LPA1; maximal inhibition): 40%; Emax (LPA2; [10]): 40%; pEC50 (LPA2; RH7777 cells expressing LPA2, read-out: LPA2 EC50): 5.00
< 4.52	< 4.52	C=CCCCCCCCCOP(=O)(O)O [Compound 5a, Phosphoric acid monodec-9-enyl ester]	< 4.52			6.30	6.11	6.24					Emax (LPA2; [10]): 100%; pIC50 (PC-3 cells; [11]): 5.82
		CCCCC=CCCCCCCCCOP(O)(O)=S [Compound 8f, Thiophosphoric acid O-tetradec-9-enyl ester]						6.40	< 4.52	< 4.52	< 4.52	6.03	effect at LPA1 in words (LPA1; RH7777 cells expressing LPA1): no effect on the LPA-induced Ca^2+ mobilization; pEC50 (LPA2): 6.32; pIC50 (LPA2): < 4.52; Emax (LPA2; RH7777, read-out: LPA2 (Emax)): 150%; pIC50 (LPA3): 7.55; pKi (LPA3): 7.85; effect in PC-3 cells in words (PC-3 cells; PC-3 cells): both independent activation and inhibition of LPA-induced Ca^2+ transients; Emax (PC-3 cells; [12]): 40%
		CCCCCCCCCCCCOP(O)(O)=S [Compound 8b, Thiophosphoric acid O-dodecyl ester]				7.85	7.55	5.89	< 4.52	< 4.52	< 4.52	5.55	
< 4.52	< 4.52	CCCCC=CCCCCCCCCOP(=O)(O)O [Compound 5d, Phosphoric acid monotetradec-9-enyl ester]			6.40	7.24	7.02	6.91					Emax (LPA2; [10]): 58%; pIC50 (PC-3 cells; [11]): 6.62
< 4.52	< 4.52	CCC=CCCCCCCCCCCOP(=O)(O)O [Compound 5e, Phosphoric acid monotetradec-11-enyl ester]			5.39	7.40	6.99						Emax (LPA2; [10]): 75%
		CCCCCCCCCCCCCCOP(O)(O)=S [Compound 8c, Thiophosphoric acid O-tetradecyl ester]				7.12	6.79		< 4.52	< 4.52	< 4.52	< 4.52	pEC50 (PC-3 cells; Homo sapiens, PC-3, read-out: PC-3 EC50): < 4.52
		CCCCCCCCOC[C@@H](COP(O)(O)=S)OCCCCCCCC [(S) enantiomer]											pIC50 (LPA1; for 200 nM LPA, formula (VII)A enantiomer, method not stated at b93, read-out: IC50 for LPA1): 6.74
		C=CCCCCCCCCOP(O)(O)=S [Compound 8d, Thiophosphoric acid O-dec-9-enyl ester]				6.89	6.47	6.27	< 4.52	< 4.52	< 4.52	6.00	pIC50 (LPA2): < 4.52; Emax (LPA2; RH7777, read-out: LPA2 (Emax)): 56%
< 4.52	< 4.52	CCC=CCCCCCCCCOP(=O)(O)O [Compound 5c, Phosphoric acid monododec-9-enyl ester]	< 4.52	< 5.00	6.14	7.57	7.49	6.41					pIC50 (PC-3 cells; [11]): 6.04
		CCCCCCCCCCOP(O)(O)=S [Compound 8a, Thiophosphoric acid O-decyl ester]				7.31	6.91	6.28	< 4.52	< 4.52	< 4.52	5.91	
		CCC=CCCCCCCCCOP(O)(O)=S [Compound 8e, Thiophosphoric acid O-dodec-9-enyl ester]						5.84	< 4.52	< 4.52	< 4.52	5.53	pEC50 (LPA2): 6.17; pIC50 (LPA2): < 4.52; Emax (LPA2; RH7777, read-out: LPA2 (Emax)): 100%; pIC50 (LPA3): 7.57; pKi (LPA3): 7.85; effect at LPA3 in words (LPA3; RH7777 cells expressing LPA3): equipotent antagonist as 8f; effect in PC-3 cells in words (PC-3 cells; PC-3 cells): both independent activation and inhibition of LPA-induced Ca^2+ transients; Emax (PC-3 cells; [12]): 27%
< 4.52	< 4.52	CCCCCCCCC=CCCCCCCCCOP(=O)(O)O [Compound 5f, Phosphoric acid monooctadec-9-enyl ester]	< 4.52	< 4.52	< 4.52		< 4.52						effect at LPA1 in words (LPA1; RH7777 cells expressing LPA1): did not inhibit nor did it activate Ca^2+ mobilization; also recorded: potentiated LPA response; effect at LPA3 in words (LPA3; RH7777 cells expressing LPA3): did not inhibit nor did it activate Ca^2+ mobilization; also recorded: potentiated LPA response; Emax (PC-3 cells; Homo sapiens, PC-3, maximal efficacy of the drug/maximal efficacy of LPA 18:1, read-out: PC-3 (Emax)): 11%

Structure (SMILES)	pIC50 (LPA2; [4])	pEC50 (LPA3; [5])	pEC50 (LPA1; [1])	pIC50 (LPA1; [2])	pEC50 (LPA2; [3])	pKi (LPA3; [6])	pIC50 (LPA3; [7])	pKi (PC-3 cells; [8])	pEC50 (LPA1)	pIC50 (LPA1)	pEC50 (LPA3)	pIC50 (PC-3 cells; [13])	other results
CCCCCCCCCCP(=O)(O)O [Compound 9a, n-decyl-phosphonate]	< 4.52	< 4.52	< 4.52	< 4.52	< 4.52	7.17	5.92	5.82					pIC50 (PC-3 cells; [9]): 5.51
CCCCCCCCCCCCCCCCCCP(=O)(O)O [Compound 9d, n-octadecyl-phosphonate]	< 4.52	< 4.52	< 4.52	< 4.52	< 4.52		< 4.52						pEC50 (PC-3 cells; induction of Ca2+ transients, PC-3 cells, read-out: PC-3 EC50): < 4.52; pIC50 (PC-3 cells; [9]): < 4.52
CCCCCCCCCCCCCCP(=O)(O)O [Compound 9c, n-tetradecyl-phosphonate]	5.26	< 4.52	< 4.52	~5.00	< 4.52	5.95	5.51	5.34					effect at LPA1 in words (LPA1; RH7777 cells expressing LPA1): IC50 values in the micromolar range; effect at LPA2 in words (LPA2; Ca2+ transients, RH7777 cells expressing LPA2): IC50 values in the micromolar range; pKi (LPA2; inhibition of LPA-induced Ca2+ transients, RH7777 cells expressing LPA2): 5.45; effect at LPA3 in words (LPA3; RH7777 cells expressing LPA3): IC50 values in the micromolar range; pIC50 (PC-3 cells; [9]): 5.01
CCCCCC=CCCCOP(=O)(O)O [Compound 5b, Phosphoric acid monodec-4-enyl ester]	< 4.52		< 4.52	< 5.00	< 5.00			6.13			< 4.52		pIC50 (LPA3): 6.08; pKi (LPA3): 6.43; pIC50 (PC-3 cells; [11]): 5.89
CCCCCCCCCCCCP(=O)(O)O [Compound 9b, n-dodecyl-phosphonate]	< 4.52	< 4.52	< 4.52	< 4.52	< 4.52	6.52	6.18	5.90					pIC50 (PC-3 cells; [9]): 5.58
